One experiment deals with Phytophthora infestans. Put plainly: whole plant or invertebrate. The experiment is classed as in vivo.
For another experiment, the system named is Leptosphaeria nodorum. The experiment can be described thus: Leptosphaeria nodorum test (wheat)/preventive. The class given is in vivo. The settings on record: for pest or weed control at 10 ppm / pest or weed control at 40 ppm / pest or weed control at 80 ppm: Parastagonospora nodorum, 192 h, read-out: Efficacy in % found; for pest or weed control at 40 ppm: 40 ppm a.i.

Another experiment deals with Puccinia triticina. The experiment can be described thus: Puccinia triticina-test (wheat)/preventive. The settings on record: preventive, evaluated 8 days after inoculation. The class given is in vivo.
Another experiment has as its system Septoria tritici. The experiment can be described thus: Septoria tritici-test (wheat)/preventive. The class given is in vivo. The settings on record: preventive, evaluated 21 days after inoculation.
Another experiment concerns Alternaria solani. The experiment can be described thus: Alternaria test (tomatoes)/preventive. The class given is in vivo. The note with it: Alternaria solani, 72 h, read-out: Efficacy in % found.
A further experiment relates to Sphaerotheca fuliginea. Put plainly: Sphaerotheca test (cucumbers)/preventive. The experiment is classed as in vivo. The settings on record: for pest or weed control at 0.25 ppm: 0.25 ppm a.i.; for Efficacy in % found: Table 4d.
The test system of experiment [1] is Blumeria graminis f.sp. hordei. The experiment can be described thus: Blumeria test (barley)/preventive. The experiment is classed as in vivo.
The subject of the next experiment is Venturia inaequalis. The experiment can be described thus: Venturia test (apples)/preventive. The settings on record: for pest or weed control at 0.25 ppm / pest or weed control at 0.5 ppm: Venturia inaequalis, 240 h; for Efficacy in % found: Table 2d.
The test system of experiment [2] is Fusarium nivale (var. majus). Put plainly: Fusarium nivale (var. majus)-test (wheat)/preventive. The settings on record: for pest or weed control at 10 ppm / pest or weed control at 40 ppm: Microdochium nivale, in Triticum aestivum, 120 h.
Experimental: After the spray coating has been dried, the plants are slightly injured by using a sandblast and afterwards they are sprayed with a conidia suspension of Fusarium nivale (var. majus).
The plants are placed in the greenhouse under a translucent incubation cabinet at a temperature of approximately 10° C. and a relative atmospheric humidity of approximately 100%.
The test is evaluated 5 days after the inoculation.
The subject of a further experiment is Pyrenophora teres. The experiment can be described thus: Pyrenophora teres-test (barley)/preventive. The settings on record: preventive, evaluated 8 days after inoculation. The experiment is classed as in vivo.
The mark [3] stands for this setting: Phytophthora infestans, 72 h, read-out: Efficacy in % found.
[4] abbreviates: Podosphaera fuliginea, 168 h, Table 4c, read-out: Efficacy in % found.
The mark [5] stands for this setting: Blumeria graminis, 168 h, Table 6d, 10 ppm, read-out: Efficacy in % found.
Setting [6] is: application rate 10 ppm, wheat, preventive, evaluated 8 days after inoculation.
Where [7] appears, read: Zymoseptoria tritici, 504 h, application rate 10 ppm a.i., read-out: Efficacy in % found.
[8] abbreviates: read-out: Efficacy in % found, Table 2b, 0.25 ppm a.i.
Where [9] appears, read: read-out: Efficacy in % found, Table 8c, 10 ppm a.i.

Several values for one entry are separate records, joined by “and”; a condition that tells them apart may be missing. Equal values may be shown once. Read-outs that look alike come from different tables or passages of the source.

Experimental for Venturia inaequalis: After the spray coating has dried on, the plants are inoculated with an aqueous conidia suspension of the causal agent of apple scab (Venturia inaequalis) and then remain for 1 day in an incubation cabinet at approximately 20° C. and a relative atmospheric humidity of 100%.
The plants are then placed in a greenhouse at approximately 21° C. and a relative atmospheric humidity of approximately 90%.
The test is evaluated 10 days after the inoculation.

For the molecule metalaxyl [B12.9], the “Efficacy in % found” value with Phytophthora infestans (Table 1a, 5 ppm a.i.) came out at 18%; with Leptosphaeria nodorum (Table 9c, 100 ppm a.i.), 33%; in the experiment on Leptosphaeria nodorum (application rate 400 ppm a.i., wheat, preventive, evaluated 8 days after inoculation) it was 0%; with Puccinia triticina (application rate 400 ppm a.i.), 11%; in the experiment on Septoria tritici (application rate 100 ppm a.i.) it was 10%.
On to `Cn1nc(C(F)F)c(C(=O)N(Cc2c(C(F)(F)F)ccc(Cl)c2F)C2CC2)c1F` [A18, N-[3-chloro-2-fluoro-6-(trifluoromethyl)benzyl]-N-cyclopropyl-3-(difluoromethyl)-5-fluoro-1-methyl-1H-pyrazole-4-carboxamide], for which the pest or weed control at 0.25 ppm was 0% in the experiment on Phytophthora infestans (setting [3]), 30% in the experiment with Alternaria solani (Table 3b), 13% with Sphaerotheca fuliginea (setting [4]) and 0% in the experiment with Venturia inaequalis (setting [8]). In addition, the pest or weed control at 100 ppm in the experiment on Phytophthora infestans (setting [3]) worked out at 32%. Further, the pest or weed control at 0.5 ppm was found to be 30% with Alternaria solani (Table 3a, 0.5 ppm a.i.) and 43% with Alternaria solani (Table 3b, 0.5 ppm). The pest or weed control at 10 ppm in experiment [1] (Blumeria graminis, 168 h, Table 6e, 10 ppm a.i., read-out: Efficacy in % found) turned out to be 29%; in [1] (setting [5]) it was 56%; with Leptosphaeria nodorum (setting [6]), 0%; with Puccinia triticina (Puccinia triticina, 192 h, application rate 10 ppm a.i., read-out: Efficacy in % found), 33%; in the experiment on Septoria tritici (setting [7]) it was 89%; in experiment [2] (read-out: Efficacy in % found, Table 8b, 10 ppm a.i.), 43%.
Take `CO/N=C(/C1=NOCCO1)c1ccccc1Oc1ncnc(Oc2ccccc2Cl)c1F` [B3.12, fluoxastrobin]: in the experiment on Phytophthora infestans (setting [3]), the pest or weed control at 2 ppm stood at 49%. The pest or weed control at 40 ppm with Leptosphaeria nodorum (Table 9a) worked out at 43%. Moreover, the pest or weed control at 10 ppm was found to be 0% in the experiment with Leptosphaeria nodorum (setting [6]); 14% with Septoria tritici (setting [7]); 50% in experiment [2] (setting [9]); 43% in [2] (read-out: Efficacy in % found, Table 8e, 10 ppm a.i.). For the same molecule, in the experiment on Venturia inaequalis (read-out: Efficacy in % found, Table 2b, 0.5 ppm a.i.), the pest or weed control at 0.5 ppm was 61%.
Take `Cn1cc(C(=O)Nc2ccccc2-c2cc(F)c(F)c(F)c2)c(C(F)F)n1` [B2.8, fluxapyroxad]: the “Efficacy in % found” value in the experiment on Sphaerotheca fuliginea (0.5 ppm a.i.) is listed as 0%; in the experiment on Leptosphaeria nodorum (setting [6]) it was 0%; in the experiment with Puccinia triticina (application rate 10 ppm a.i.), 0%; with Puccinia triticina (application rate 40 ppm a.i.), 67%; in the experiment with Septoria tritici (application rate 10 ppm a.i.), 0%; with Venturia inaequalis (0.25 ppm a.i.), 19%.
Turning to `CO/C=C(/C(=O)OC)c1ccccc1Oc1cc(Oc2ccccc2C#N)ncn1` [B3.3, azoxystrobin], the “Efficacy in % found” value in the experiment with Phytophthora infestans (Table 1b, 1 ppm a.i.) was determined as 50%; in the experiment with Sphaerotheca fuliginea (2 ppm a.i.), 50%; in [1] (Table 6a, 10 ppm a.i.), 0%; with Septoria tritici (application rate 10 ppm a.i.), 29%; in experiment [2] (Table 8e, 40 ppm a.i.), 0%.
Take `O=C(NCCc1ncc(C(F)(F)F)cc1Cl)c1ccccc1C(F)(F)F` [B2.6, fluopyram]: the pest or weed control at 20 ppm was determined as 11% in experiment [1] (Blumeria graminis, 168 h, Table 6d, 20 ppm, read-out: Efficacy in % found) and 57% in the experiment on Septoria tritici (Zymoseptoria tritici, 504 h, application rate 20 ppm a.i., read-out: Efficacy in % found). Also, the pest or weed control at 80 ppm in the experiment on Leptosphaeria nodorum (Table 9a, 80 ppm a.i.) amounted to 0%; in the experiment on Leptosphaeria nodorum (application rate 80 ppm, wheat, preventive, evaluated 8 days after inoculation), 0%. For the same molecule, the “Efficacy in % found” value with Pyrenophora teres (application rate 20 ppm a.i.) is reported as 57%.
Regarding `CC(C)c1ccccc1CN(C(=O)c1c(C(F)F)nn(C)c1F)C1CC1` [A1, N-cyclopropyl-3-(difluoromethyl)-5-fluoro-N-(2-isopropylbenzyl)-1-methyl-1H-pyrazole-4-carboxamide], the pest or weed control at 0.25 ppm amounted to 0% in the experiment with Phytophthora infestans (setting [3]); 53% with Alternaria solani (Table 3b); 19% in the experiment with Sphaerotheca fuliginea (Podosphaera fuliginea, 168 h, Table 4a, read-out: Efficacy in % found); 48% with Sphaerotheca fuliginea (Podosphaera fuliginea, 168 h, Table 4b, read-out: Efficacy in % found); 21% with Sphaerotheca fuliginea (setting [4]); 31% in the experiment on Venturia inaequalis (setting [8]). Besides, the pest or weed control at 0.25 ppm with Venturia inaequalis (read-out: Efficacy in % found, Table 2c, 0.25 ppm a.i.) was 0%. In the experiment on Phytophthora infestans (setting [3]), the pest or weed control at 100 ppm is 0%. Further, the pest or weed control at 0.5 ppm worked out at 38% in the experiment on Alternaria solani (Table 3a, 0.5 ppm a.i.); 59% with Alternaria solani (Table 3b, 0.5 ppm); 16% with Alternaria solani (Table 3c, 0.5 ppm); 69% in the experiment with Sphaerotheca fuliginea (Podosphaera fuliginea, 168 h, Table 4a, 0.5 ppm a.i., read-out: Efficacy in % found); 57% with Venturia inaequalis (read-out: Efficacy in % found, Table 2a, 0.5 ppm a.i.); 29% with Venturia inaequalis (read-out: Efficacy in % found, Table 2f, 0.5 ppm a.i.). The pest or weed control at 10 ppm in the experiment with Leptosphaeria nodorum (Table 9a, 10 ppm a.i.) was determined as 29%; in the experiment with Leptosphaeria nodorum (Table 9b, 10 ppm a.i.), 0%; in the experiment on Leptosphaeria nodorum (Table 9c, 10 ppm a.i.), 50%; with Septoria tritici (setting [7]) it was 50%; in experiment [2] (read-out: Efficacy in % found, Table 8a, 10 ppm) it was 0%. Further, the pest or weed control at 40 ppm was 71% in the experiment on Leptosphaeria nodorum (Table 9a) and 29% in experiment [2] (read-out: Efficacy in % found, Table 8a, 40 ppm). Also, the pest or weed control at 62.5 ppm with Puccinia triticina (Puccinia triticina, 192 h, application rate 62.5 ppm a.i., read-out: Efficacy in % found) was found to be 57%.
On to `CC(C)(C)C(O)(CCc1ccc(Cl)cc1)Cn1cncn1` (centres unmarked) [B1.47, tebuconazole], for which the pest or weed control at 10 ppm in experiment [1] (Blumeria graminis, 168 h, Table 6f, 10 ppm a.i., read-out: Efficacy in % found) stood at 50%; in experiment [1] (setting [5]), 33%; with Leptosphaeria nodorum (setting [6]) it was 33%; in experiment [2] (setting [9]), 25%. Also, the pest or weed control at 4 ppm with Puccinia triticina (Puccinia triticina, 192 h, application rate 4 ppm a.i., read-out: Efficacy in % found) worked out at 33%. Moreover, the pest or weed control at 40 ppm with Septoria tritici (Zymoseptoria tritici, 504 h, application rate 40 ppm a.i., read-out: Efficacy in % found) was 71%; in [2] (read-out: Efficacy in % found, Table 8e, 40 ppm a.i.), 0%.
As to `Cn1cc(C(=O)Nc2ccccc2C2CC2C2CC2)c(C(F)F)n1` (centres unmarked) [B2.22, sedaxane], the “Efficacy in % found” value is 0% in the experiment with Leptosphaeria nodorum (Table 9a, 80 ppm a.i.); 0% with Pyrenophora teres (application rate 20 ppm a.i.); 14% in the experiment on Septoria tritici (application rate 20 ppm a.i.); 53% in the experiment on Venturia inaequalis (0.5 ppm a.i.); 0% in [2] (Table 8e, 80 ppm a.i.).
In the case of `Cc1nn(C)c(F)c1C(=O)Nc1ccccc1C(C)CC(C)C` (centres unmarked) [B2.20, penflufen], the “Efficacy in % found” value in the experiment on Sphaerotheca fuliginea (0.5 ppm a.i.) is 0%; with Leptosphaeria nodorum (application rate 20 ppm, wheat, preventive, evaluated 8 days after inoculation) it was 0%; with Pyrenophora teres (application rate 20 ppm a.i.), 29%; with Septoria tritici (application rate 20 ppm a.i.), 29%; in experiment [2] (Table 8a, 20 ppm), 14%; in experiment [2] (Table 8b, 20 ppm a.i.), 29%.
For `Cc1ccc(C(C)NC(=O)[C@@H](NC(=O)OC(C)C)C(C)C)cc1` (some centres unmarked) [B9.4, iprovalicarb], the “Efficacy in % found” value in the experiment with Phytophthora infestans (Table 1a, 5 ppm a.i.) worked out at 48%; in experiment [1] (Table 6e, 100 ppm a.i.), 0%; in the experiment with Pyrenophora teres (application rate 100 ppm a.i.), 33%.
Consider `OC(Cc1ccccc1Cl)(Cn1nc[nH]c1=S)C1(Cl)CC1` (centres unmarked) [B1.41, prothioconazole], for which the pest or weed control at 2 ppm in the experiment on Alternaria solani (Table 3c, 2 ppm) was 0%. The pest or weed control at 20 ppm in the experiment with Puccinia triticina (Puccinia triticina, 192 h, application rate 20 ppm a.i., read-out: Efficacy in % found) was determined as 11%. Moreover, the pest or weed control at 80 ppm worked out at 11% in the experiment on Puccinia triticina (Puccinia triticina, 192 h, application rate 80 ppm a.i., read-out: Efficacy in % found) and 43% with Septoria tritici (Zymoseptoria tritici, 504 h, application rate 80 ppm a.i., read-out: Efficacy in % found). For the same molecule, the “Efficacy in % found” value in the experiment on Pyrenophora teres (application rate 20 ppm a.i.) was 14% and 22%.

Values taken from patent US12642271B2, “Active compound combinations comprising a (thio)carboxamide derivative and a fungicidal compound” (Bayer CropScience Aktiengesellschaft, priority 2011, dated 2026).
